Test results: patent publication US20260242405A1, “N-DERIVATIZED SIALIC ACIDS AND RELATED SIALOSIDES” (THE REGENTS OF THE UNIVERSITY OF CALIFORNIA, priority 2023, published 2026)
Like-named read-outs stand apart in the source and are kept apart here.

Columns and labels:
N1-BR18 = settings: read-out: KD for the interaction of N1-BR18
H1N1/BR18 virus = settings: virus in egg allantoic fluid, streptavidin plates or Dynabeads
[1] = system: NAs from both IAVs and IBVs
Protocol: Enzyme-linked immunosorbent assays (ELISA). These assays were carried out in duplicates in 384-well NeutrAvidin-coated plates. The wells were washed with 3×80 μL of washing buffer (1× PBS buffer with 0.05% tween-20) and then were incubated with biotinylated glycans (10 μM, 20 μL) at 4° C. for overnight. Then the wells were washed with 3×80 μL of washing buffer and blocked with 60 μL of blocking buffer (1× PBS buffer with 0.1% BSA). The wells were then washed with 3×80 μL of washing buffer, and NA (10 μg/mL, 20 μL) was added to each well. The samples were incubated at 4° C. for 30 minutes. The wells were then washed with 3×80 μL of washing buffer, and HRP-conjugated anti-His or anti-Strep antibodies (0.1 μg/mL or with proper dilution using 1× PBS buffer with 0.1% BSA, 20 μL) were added. The samples were incubated at 4° C. for 30 minutes.

Row | Substance | binding of influenza NAs to immobilized sialoside (BLI), in words (influenza NAs) | Kd (N1-BR18) [nM] | detection and retention of H1N1/BR18 virions by immobilized ligand (H1N1/BR18 virus; listed as 4-Guanidino-Neu5Acα2-3LacNAcβProNH-PEG4-Biotin (10d)) | detection and retention of H1N1/BR18 virions by immobilized ligand (H1N1/BR18 virus; listed as 4-guanidino-Neu5Acα2-3LacNAcβProNH-PEG4-Biotin (10d)) | suitability as affinity ligand for immobilizing NAs (ELISA) [1] | detection and retention of H1N1/BR18 virions by immobilized ligand (H1N1/BR18 virus)
1 | 4-Guanidino-Neu5Acα2-3LacNAcβPorNH-PEG4-Biotin [Compound 10d] | significantly stronger binders than other sialosides | 45.5 | effective affinity ligand for detecting and purifying H1N1 virus | efficient in retaining H1N1/BR18 virions | – | –
2 | 4N3Neu5Acα2-3LacNAcβProNH-PEG4-Biotin [Compound 11d] | Weak binding of N1-Vic19, N2-Dar21, and the IBV NAs | – | – | – | not suitable affinity ligands | –
3 | 4NAcNeu5Acα2-3LacNAcβProNH-PEG4-Biotin [Compound 12d] | weak binding of N1-Vic19 and N2-Dar21 | – | – | – | not suitable affinity ligands | –
4 | LacNAcβProNH-PEG4-Biotin [LacNAcβProNH-PEG4-Biotin (20), reference compound] | – | – | – | – | not suitable affinity ligands | did not retain influenza virions
